Measurements as given in patent US10413552B2, “Method of treating medulloblastoma” (THE HOSPITAL FOR SICK CHILDREN, priority 2015, dated 2019).

How the values were obtained:
[1] = test system: D458 cerebellar xenografts; test: D458 intracranial medulloblastoma xenograft; format: in vivo, athymic nude mice; settings: for survival / survival difference, log-rank test p: D458 xenograft; for survival / medulloblastoma growth (bioluminescence imaging, H&E): s.c. for 2 weeks; for survival: Kaplan-Meier; for medulloblastoma growth (bioluminescence imaging, H&E): D458-luciferase xenograft, vs DMSO-treated controls; for survival difference, log-rank test p: vs vehicle control
Procedure: (§1) Medulloblastoma intracranial xenografts were established in 5-6 week old athymic nude mice (Charles River Laboratories). Medulloblastoma cells (250,000 D425 and D458 cells) were implanted in the right cerebellum of mice. Six days after cell inoculation, animals were randomized into treatment cohorts, which included subcutaneous injections with vehicle control (10% DMSO), PL (50 mg/kg, daily for 2 weeks), ALP (30 mg/kg, daily for 2 weeks), RTL (20 mg/kg, every other day for 2 weeks) or FZ (50 mg/Kg, daily for 2 weeks).
In animals bearing D458-GFP/Luciferase xenografts, bioluminescence imaging was performed at 6 days after intracranial injection. Mice with a detectable signal were included in the study and tumor growth was monitored at one-week intervals using the IVIS Spectrum Optical In-vivo Imaging System (Caliper Life Sciences).
(§2) Animals with progressive neurological signs or weight loss greater than 20% were euthanized and the brains harvested and fixed in 10% formalin.
(§3) The Kaplan-Meier estimate and a log-rank test were used to generate survival curves. Experiments were performed in triplicate and results were expressed as mean±SEM. Statistical analysis was performed using GraphPad Prism 5 Software.
The efficacy of PL, ALP, RTL and FZ in established medulloblastoma xenografts representative of Group 3 medulloblastomas was then determined. D458 cells expressing luciferase were implanted in the right cerebellum of nude mice and bioluminescence imaging was performed at 6 days post inoculation. Animals with a detectable signal were treated by subcutaneous injection with PL (50 mg/kg, daily for 2 weeks), ALP (30 mg/kg, daily for 2 weeks), RTL (20 mg/kg, every other day for 2 weeks), FZ (50 mg/Kg, daily for 2 weeks) or vehicle control (10% DMSO).

[2] = test system: hf5281 fetal normal human brain cells; test: MTS cell proliferation assay in fetal normal human brain cells; format: cell-based; settings: hf5281, up to the highest concentration tested of 10 μM
Procedure: (§4) FIG. 1 illustrates the cytotoxic effect of piperlongumine, alsterpaullone, rottlerin and flunarizine in Group 3 medulloblastoma cell lines. Established medulloblastoma cell lines (D425 and D458) and a fetal neural stem cell line (hf5281) were treated with various concentrations of (a) piperlongumine, (b) alsterpaullone, (c) rottlerin and (d) flunarizine for 48 hours. Cell viability was measured by MTS assay. Data represent mean of triplicates±SEM.
(§5) D425 and D458 cells were grown as suspension cultures and seeded in 96-well microplates at 10,000 cells per well. Fetal normal human brain cells (hf5281) were grown as an adherent culture and seeded in 96-well microplates at 4,000 and 5,000 cells per well. Cells were treated for 48 h with different concentrations of Piperlongumine (PL; INDOFINE Chemical Company), alsterpaullone (ALP; A, G. Scientific), rottlerin (RTL; A. G. Scientific) and flunarizine (FZ; Sigma) or DMSO (control). Cell viability was determined by MTS proliferation assay (3-(4,5-dimethylthiazol-2-yl)-5-(3-carboxymethoxyphenyl)-2-(4-sulfophenyl)-2H-tetrazolium) and the absorbance was measured at 490 nm (CellTiter 96 Aqueous One Solution Reagent; Promega). Three independent experiments were performed with 16 repeats per treatment condition.

[3] = test system: D425 and D458 medulloblastoma cell lines; test: MTS cell proliferation assay in Group 3 medulloblastoma cell lines; format: cell-based; settings: 48 hours treatment
Procedure: as §4, §5

[4] = test system: D425 and D458 medulloblastoma cells; test: Western blot, induction of apoptosis; format: cell-based; settings: 48 h treatment
Procedure: (§6) Cell lysates were prepared by adding RIPA buffer (Sigma) containing protease inhibitors (F. Hoffman-La Roche AG), 0.2 M sodium orthovanadate, 0.2 M sodium pyrophosphate and 0.2 M sodium fluoride. The Pierce BCA Protein Assay Kit (Thermo Scientific) was used to determine protein concentration. […] The following antibodies were used: PARP (1:1,000; Cell Signaling), AKT (1:1,000; Cell Signaling), phospho-AKT (1:2,000; Ser473, Cell Signaling), α-tubulin (1:1,000; Cell Signaling), anti-mouse IgG conjugated to horseradish peroxidase (1:5,000; Amersham Biosciences) and anti-rabbit IgG conjugated to horseradish peroxidase (1:5,000; Cell Signaling).
(§7) To determine the mechanisms by which PL and ALP exert their antitumor effect, D425 and D458 medulloblastoma cells were treated with both drugs for 48 h.

[5] = test system: D425 cerebellar xenografts; test: D425 intracranial medulloblastoma xenograft; format: in vivo, athymic nude mice; settings: for survival: Kaplan-Meier; for medulloblastoma growth (H&E): vs control group
Procedure: as §1, §2, §3

[6] = test system: AKT pathway; test: Western blot, AKT pathway inhibition; format: cell-based; settings: 48 h treatment, D458 and D425 cells
Procedure: as §6, §7

[7] = test system: D425 and D458 medulloblastoma cells; test: Gene expression profiling and Gene Set Enrichment Analysis (GSEA) after treatment; format: cell-based, human
Procedure: D425 and D458 medulloblastoma cells were treated with 5 μM of PL, 5 μM of ALP or DMSO (control) for 48 h. RNA isolation was performed using the RNeasy Mini Kit (Qiagen) and gene expression data were generated using the Human PrimeView Arrays. Gene Set Enrichment Analysis (GSEA) was performed using gene sets from the National Cancer Institute (NCI), Gene Ontology (GO), Kyoto Encyclopedia of Genes and Genomes (KEGG), Protein Families (PFAM) and Biocarta pathway databases. Significant gene sets were identified (FDR<0.05; p<0.01) and visualized in Cytoscape and Enrichment Map software.
To identify downstream transcriptional events induced by ALP, genomic profiling of Group 3 medulloblastoma cell lines (D425 and D458) was conducted after treatment for 48 hours. […] Gene Set Enrichment Analysis (GSEA) was performed with gene sets compiled from the National Cancer Institute (NCI), Gene Ontology (GO), Kyoto Encyclopedia of Genes and Genomes (KEGG), Protein Families (PFAM) and Biocarta pathway databases. To visualize significant gene sets (FDR<0.05; p<0.01) as interaction networks, Cytoscape and Enrichment Map were used.

[8] = D425 and D458, 5 μM, 48 h vs DMSO, rank 1
[9] = D425 and D458, 5 μM, 48 h vs DMSO, rank 2
[10] = D425 and D458, 5 μM, 48 h vs DMSO, rank 3
[11] = D425 and D458, 5 μM, 48 h vs DMSO, rank 4
[12] = D425 and D458, 5 μM, 48 h vs DMSO, rank 5
[13] = D425 and D458, 5 μM, 48 h vs DMSO, rank 6
[14] = D425 and D458, 5 μM, 48 h vs DMSO, rank 7
[15] = D425 and D458, 5 μM, 48 h vs DMSO, rank 8
[16] = D425 and D458, 5 μM, 48 h vs DMSO, rank 9
[17] = D425 and D458, 5 μM, 48 h vs DMSO, rank 10

Compound: Fc1ccc(C(c2ccc(F)cc2)N2CCN(C/C=C/c3ccccc3)CC2)cc1 [flunarizine]
- survival [1]: not able to prolong survival

Compound: CC(=O)c1c(O)c(C)c(O)c(Cc2c(O)c3c(c(C(=O)/C=C/c4ccccc4)c2O)OC(C)(C)C=C3)c1O [rottlerin]
- reduction in cell proliferation [2]: little reduction in cell proliferation
- medulloblastoma growth (bioluminescence imaging, H&E) [1]: Marked reduction in medulloblastoma growth
- survival [1]: significant increase in survival
- survival difference, log-rank test p [1]: 0.0262
- concentration at which cell proliferation was reduced [3]: 5 µM

Compound: O=C1Cc2c([nH]c3ccc([N+](=O)[O-])cc23)-c2ccccc2N1 [alsterpaullone, 9-nitro-7,12-dihydroindolo-[3,2-d][1]benzazepin-6(5)-one]
- reduction in cell proliferation [2]: little reduction in cell proliferation
- apoptosis (Western blot) [4]: induced apoptosis
- medulloblastoma growth (bioluminescence imaging, H&E) [1]: Marked reduction in medulloblastoma growth
- survival [1]: significant increase in survival
- survival difference, log-rank test p [1]: 0.0043
- survival [5]: significantly increase survival
- medulloblastoma growth (H&E) [5]: reduce medulloblastoma growth
- AKT pathway activation (Western blot) [6]: potently inhibited AKT pathway activation at lower concentrations than PL
- GSEA enriched pathway Cell Cycle Mitotic: Regulation [7, 8]: Down-Regulated
- GSEA enriched pathway Systemic Lupus Erythematosus: Regulation [7, 8]: Up-Regulated
- GSEA enriched pathway Mitotic M M G1 Phases: Regulation [7, 9]: Down-Regulated
- GSEA enriched pathway RNA Pol 1 Promoter Opening: Regulation [7, 9]: Up-Regulated
- GSEA enriched pathway Amyloids: Regulation [7, 10]: Up-Regulated
- GSEA enriched pathway Mitotic Prometaphase: Regulation [7, 10]: Down-Regulated
- GSEA enriched pathway DNA Replication: Regulation [7, 11]: Down-Regulated
- GSEA enriched pathway Packaging of Telomere Ends: Regulation [7, 11]: Up-Regulated
- GSEA enriched pathway G2 M Checkpoints: Regulation [7, 12]: Down-Regulated
- GSEA enriched pathway Olfactory Signaling Pathway: Regulation [7, 12]: Up-Regulated
- GSEA enriched pathway Autoimmune Thyroid Disease: Regulation [7, 13]: Up-Regulated
- GSEA enriched pathway Metabolism of Non Coding RNA: Regulation [7, 13]: Down-Regulated
- GSEA enriched pathway Activation of the Pre Replicative Complex: Regulation [7, 14]: Down-Regulated
- GSEA enriched pathway Asthma: Regulation [7, 14]: Up-Regulated
- GSEA enriched pathway Cell Cycle: Regulation [7, 15]: Down-Regulated
- GSEA enriched pathway Class A1 Rhodopsin Like Receptors: Regulation [7, 15]: Up-Regulated
- GSEA enriched pathway Activation of ATR in Response to Replication Stress: Regulation [7, 16]: Down-Regulated
- GSEA enriched pathway Immunoregulatory Interactions Between a lymphoid and a non lymphoid Cell: Regulation [7, 16]: Up-Regulated
- GSEA enriched pathway Cell Cycle Checkpoints: Regulation [7, 17]: Down-Regulated
- GSEA enriched pathway RNA Pol 1 Transcription: Regulation [7, 17]: Up-Regulated
- gene expression change vs DMSO-treated cells ([7]; D425 and D458, 48 hours, MYC, CDK7, RB1, CDK6, CCNB1, CDK5RAP2, CDK1, CDKN2C): down-regulation of genes involved in cell cycle
- concentration at which cell proliferation was reduced [3]: 1 µM

Compound: COc1cc(/C=C/C(=O)N2CCC=CC2=O)cc(OC)c1OC [piperlongumine]
- reduction in cell proliferation [2]: little reduction in cell proliferation
- apoptosis (Western blot) [4]: induction of apoptosis
- medulloblastoma growth (bioluminescence imaging, H&E) [1]: Marked reduction in medulloblastoma growth
- survival [1]: significant increase in survival
- survival difference, log-rank test p [1]: 0.0011
- survival [5]: significantly increase survival
- medulloblastoma growth (H&E) [5]: reduce medulloblastoma growth
- AKT pathway activation (Western blot) [6]: AKT pathway inhibition
- concentration at which cell proliferation was reduced [3]: 5 µM
